The values that follow come from patent US11596622B2, “Mazindol treatment for heroin dependence and substance use disorder” (NLS Pharmaceutics AG, priority 2017, dated 2023).

In one data set the target is T1, H1(h) (Homo sapiens, UniProt P35367).
T1 construct: Eurofins CEREP
Briefly: Radioligand binding, H1 (Eurofins CEREP). The conditions noted are these: 1.0 × 10^−05 M; antagonist radioligand; read-out: percent inhibition of the binding of a radioactively labeled ligand. The source says:
(§1) Table A discloses mazindol and Met tested at […] and the compound binding calculated as a percent inhibition of the binding of a radioactively labeled ligand specific for each target (Eurofins CEREP, France).
(§2) An inhibition or stimulation of more than 50% is considered a significant effect of the test compounds. Fifty percent is a common cut-off for further investigation (i.e. determination of IC50 or EC50 values from concentration-response curves). Tables B and C display the binding profiles for Mazindol and Met.
(§3) The results are expressed as a percent of control specific binding obtained in the presence of the test compounds:
(§4) [formula] and as a percent inhibition of control specific binding obtained in the presence of the test compounds: […]

The conditions of data set [1]: cited from earlier work.
The target of a further data set is T2, μ (MOP) (h) (Homo sapiens, UniProt P35372).
T2 construct: Eurofins CEREP
Kind of data set: Radioligand binding, μ opioid receptor (Eurofins CEREP).
From the text: as §1, §2, §3, §4

Another data set has as its system C57BL/6J mice. Briefly: Conditioned place preference induced by the drug itself. Format: in vivo. The source says: Conditioned place preference (CPP) is a widely used procedure for studying the potential addictive effect of drugs. CPP is based upon the tendency of rodents to approach a stimulus that has previously been paired with an incentive state induced by a drug. A drug that induces a CPP may be suspected to present reinforcing effects that could lead to addiction. Numerous addictive drugs, such as opiate agonists or stimulants induce a CPP and a behavioral sensitization.
The effect of mazindol on place preference was examined in C57BL/6J mice using a method similar to the one used by Schlussman et al. (9).
The second experiment consisted in determining the optimal dose of heroin which induces the most significant CPP. For this purpose, the CPP induced by heroin at 1.25, 2.5 and 5 mg/kg was examined.
Following the habituation session (on day 1), animals (N=72) were pseudo-randomly assigned to two groups, a Control group (N=12) and a Heroin group (N=60), in a way that there was no significant difference between the two groups for the total distance travelled in the apparatus and for the percentage of time spent and the percentage distance travelled in the grey compartment and in the striped compartment.
Animals received the following treatments immediately before drug sessions: • Control group: vehicle • Heroin group: heroin (1.25 mg/kg)
Following the habituation session (on day 1), animals (N=72) were pseudo-randomly assigned to three groups, a Control group (N=12), a Heroin group (N=48) and a Mazindol group (N=12), in a way that there was no significant difference between the three groups for the total distance travelled in the apparatus and for the percentage of time spent and the percentage distance travelled in the grey compartment and in the striped compartment.
Animals received the following treatments before drug sessions: • Control group: vehicle, i.p. immediately before session. • Heroin group: heroin (1.25 mg/kg), i.p. immediately before session. • MAZ 2 group: mazindol (2 mg/kg), i.p. 60 min before session.
Animals received the following treatments before preference session: • Control group: vehicle of mazindol, i.p. 60 min before testing. • Hero group: vehicle of mazindol, i.p. 60 min before testing. • Hero-Mz 1 group: mazindol (1 mg/kg), i.p. 60 min before testing. • Hero-Mz 2 group: mazindol (2 mg/kg), i.p. 60 min before testing. • Hero-A 1 group: D-amphetamine (1 mg/kg), i.p. 30 min before testing. • MAZ 2 group: vehicle of mazindol, i.p. 60 min before testing.

For the next data set, the target named is T3, M1(h) (Homo sapiens, UniProt P11229).
T3 construct: Eurofins CEREP
T3 sequence (P11229 1-460): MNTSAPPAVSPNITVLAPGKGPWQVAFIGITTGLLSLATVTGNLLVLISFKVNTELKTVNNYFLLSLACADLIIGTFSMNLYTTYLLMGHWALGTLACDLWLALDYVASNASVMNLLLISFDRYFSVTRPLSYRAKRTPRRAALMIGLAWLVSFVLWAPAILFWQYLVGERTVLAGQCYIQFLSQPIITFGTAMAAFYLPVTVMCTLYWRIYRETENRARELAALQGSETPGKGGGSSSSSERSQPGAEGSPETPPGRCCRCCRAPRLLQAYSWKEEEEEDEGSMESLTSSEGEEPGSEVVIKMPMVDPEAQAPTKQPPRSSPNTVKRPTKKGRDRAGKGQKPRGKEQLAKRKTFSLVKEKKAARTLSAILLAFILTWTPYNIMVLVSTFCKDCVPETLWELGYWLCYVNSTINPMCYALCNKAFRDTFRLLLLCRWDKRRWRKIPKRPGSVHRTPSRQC
Kind of data set: Radioligand binding, M1 (Eurofins CEREP). The conditions noted are these: 1.0 × 10^−05 M; antagonist radioligand; read-out: percent inhibition of the binding of a radioactively labeled ligand.
From the text: as §1, §2, §3, §4

The nature of data set [2]: Pharmacokinetics of mazindol after oral administration. The conditions noted are these: immediate release formulation.
Where [3] appears, read: MAZ 2: mazindol 2 mg/kg i.p. 60 min before drug sessions, vehicle before preference session, day 12, mean.

T2 sequence (P35372 whole entry): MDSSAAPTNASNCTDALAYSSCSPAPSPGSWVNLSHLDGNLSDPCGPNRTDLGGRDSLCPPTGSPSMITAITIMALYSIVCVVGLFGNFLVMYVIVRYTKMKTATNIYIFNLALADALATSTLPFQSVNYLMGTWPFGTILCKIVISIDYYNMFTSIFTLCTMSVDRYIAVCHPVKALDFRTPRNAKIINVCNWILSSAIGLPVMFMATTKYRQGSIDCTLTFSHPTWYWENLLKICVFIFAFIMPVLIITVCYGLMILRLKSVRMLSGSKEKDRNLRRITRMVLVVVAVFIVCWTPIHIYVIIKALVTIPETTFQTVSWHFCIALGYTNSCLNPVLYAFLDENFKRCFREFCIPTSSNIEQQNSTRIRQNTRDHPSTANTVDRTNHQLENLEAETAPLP
T1 sequence (P35367 whole entry): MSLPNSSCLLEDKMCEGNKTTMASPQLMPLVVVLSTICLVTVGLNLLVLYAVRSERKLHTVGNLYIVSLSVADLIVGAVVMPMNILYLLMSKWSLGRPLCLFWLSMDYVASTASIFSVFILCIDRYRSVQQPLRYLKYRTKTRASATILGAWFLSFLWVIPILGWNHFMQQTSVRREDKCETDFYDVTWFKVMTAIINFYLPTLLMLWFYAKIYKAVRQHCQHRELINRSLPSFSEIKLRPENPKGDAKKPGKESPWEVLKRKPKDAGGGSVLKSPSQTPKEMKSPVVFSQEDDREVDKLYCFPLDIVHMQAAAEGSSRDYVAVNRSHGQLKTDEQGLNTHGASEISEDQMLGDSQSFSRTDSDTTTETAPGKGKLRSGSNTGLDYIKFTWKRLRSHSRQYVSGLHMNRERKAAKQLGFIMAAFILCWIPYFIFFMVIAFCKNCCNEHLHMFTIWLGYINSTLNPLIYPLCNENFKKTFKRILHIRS

Regarding `OC1(c2ccc(Cl)cc2)c2ccccc2C2=NCCN21` (stereo not shown) [Mazindol, 5-(4-chlorophenyl)-2,5-dihydro-3 H-imadazo[2,1-a]isoindol-5-ol], at H1(h), the inhibition at 10 µM worked out at 75.3%. The linearity of pharmacokinetics result in data set [1] (between 1 mg/day and 4 mg/day, immediate release formulations) is on record as “linear (independent of the dose)”. Also, the half-life time in data set [1] (immediate release formulation, healthy volunteers (Kim 2009)) is 9.1 ± 1.7 h. The “time to maximum concentrations (Tmax)” value in data set [1] (single or repeated oral administration, U.S. Pat. No. 8,293,779) was 2 to 4 h. On μ (MOP) (h) (1.0 × 10^−05 M, agonist radioligand, read-out: percent inhibition of the binding of a radioactively labeled ligand), the inhibition at 10 µM came to 89.9%. Besides, on μ (MOP) (h) (compared with amphetamines), the “affinity for μ-opioid receptors” value is “higher affinity”. Moreover, in the data set with C57BL/6J mice (setting [3]), the “Distance travelled in the drug-paired compartment” value stood at 9013.0 cm; the “Distance travelled in the two compartments (Drug + Vehicle)” value came out at 14858.2 cm; the “Distance travelled in the vehicle-paired compartment” value is 5845.2 cm; the “Distance travelled, drug-paired minus vehicle-paired compartment” value stood at 3167.8 cm. Further, in the data set with C57BL/6J mice (setting [3]), the “Time spent in the drug-paired compartment” value was 1077.3 s; the “Time spent in the vehicle-paired compartment” value was 722.7 s; the “Time spent, drug-paired minus vehicle-paired compartment” value came to 354.6 s. Besides, the “place preference induced by the drug” value with C57BL/6J mice (mazindol 2 mg/kg i.p. before drug sessions) is “induced a place preference”. In addition, the inhibition at 10 µM on M1(h) worked out at 52.1%. Further, the “time to steady-state concentrations” value in data set [2] was in the range of 30 to 55 h.

As a reminder, the inhibition is the percentage by which the read-out fell short of the control.
